Reference: ChEMBL document CHEMBL1201862, “PubChem BioAssay data set” (2004)
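Results reflect a 48-hour exposure of cells in 96-well plates to compound at five concentrations. At the GI50, growth is halved.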 The source made the active and inactive calls. Cut-off read from the data, not from the text of the source: active = GI50 up to about 1.1 µM and inactive = higher.

Columns and labels:
Assay in all cases: NCI-60 cell line screen, 48 h
[1] = test system: RPMI-8226
[2] = test system: T47D
[3] = test system: MDA-N
[4] = test system: SF-295
[5] = test system: SNB-19
[6] = test system: HCT-116
[7] = test system: UO-31
[8] = test system: HOP-92
[9] = test system: IGROV-1
[10] = test system: NCI-H460
[11] = test system: SW-620
[12] = test system: MDA-MB-231
[13] = test system: HCC 2998
[14] = test system: SN12C
[15] = test system: Malme-3M
[16] = test system: UACC-62
[17] = test system: Hs-578T
[18] = test system: SK-OV-3
[19] = test system: NCI-H226

Measured: GI50

Oc1ccnc(SCc2ccc(Cl)cc2)n1
inactive: [1] 56.1 µM | [2] > 100 µM | [3] > 100 µM | [4] 87.1 µM | [5] > 100 µM | [6] > 100 µM | [7] > 100 µM | [8] > 100 µM | [9] > 100 µM | [10] > 100 µM | [11] > 100 µM | [12] > 100 µM | [13] 13.4 µM | [14] > 100 µM | [15] > 100 µM | [16] > 100 µM | [17] > 100 µM | [18] > 100 µM

Cc1c(CN2CCOCC2)c(CN2CCOCC2)c(C)n1-c1ccc(Cl)cn1
inactive: [1] > 100 µM | [2] > 100 µM | [3] > 100 µM | [4] > 100 µM | [5] > 100 µM | [19] > 100 µM | [6] > 100 µM | [7] > 100 µM | [9] > 100 µM | [10] > 100 µM | [11] > 100 µM | [12] > 100 µM | [13] > 100 µM | [14] > 100 µM | [15] > 100 µM | [16] > 100 µM | [17] > 100 µM | [18] > 100 µM

Cc1ccc(O)c(C2=CC3=NNC(=O)C3C(c3cccc(Cl)c3)C2)c1 (stereo unspecified)
inactive: [1] 24.4 µM | [2] 28.1 µM | [3] 29.5 µM | [4] 37.6 µM | [5] 50.6 µM | [6] 30.9 µM | [7] 71.6 µM | [8] 24 µM | [9] 31.2 µM | [10] 32.4 µM | [11] 38 µM | [12] 34.9 µM | [13] 20.7 µM | [14] 32.5 µM | [15] 35.3 µM | [16] 24.9 µM | [17] 36.3 µM | [18] 23.9 µM

CC[C@H]1OC([C@H](O)C/C=C\C#C[Si](C)(C)C)C/C=C\C[C@H]1O[Si](C)(C)C(C)(C)C (stereo partly specified)
inactive: [1] 37.8 µM | [2] > 100 µM | [3] > 100 µM | [4] > 100 µM | [5] > 100 µM | [19] > 100 µM | [6] > 100 µM | [7] 54.5 µM | [9] > 100 µM | [10] > 100 µM | [11] > 100 µM | [12] > 100 µM | [13] > 100 µM | [14] > 100 µM | [15] > 100 µM | [16] > 100 µM | [17] > 100 µM | [18] > 100 µM

C[C@]12[C@@H]3CC[C@H]1[C@@H](O)C(=O)N2CC3
inactive: [1] > 100 µM | [2] > 100 µM | [3] > 100 µM | [4] > 100 µM | [5] > 100 µM | [6] > 100 µM | [7] > 100 µM | [8] > 100 µM | [9] > 100 µM | [10] > 100 µM | [11] > 100 µM | [12] > 100 µM | [13] > 100 µM | [14] > 100 µM | [15] > 100 µM | [16] > 100 µM | [17] > 100 µM | [18] > 100 µM

COc1ccc(/C=N\N2CC(=O)N3C4C=CC(CC4)N3C2=O)cc1 (stereo unspecified)
inactive: [1] > 100 µM | [2] 85.7 µM | [3] > 100 µM | [4] > 100 µM | [5] > 100 µM | [19] > 100 µM | [6] > 100 µM | [7] > 100 µM | [8] > 100 µM | [9] > 100 µM | [10] > 100 µM | [11] > 100 µM | [12] > 100 µM | [14] > 100 µM | [16] 74.8 µM | [17] 46.3 µM | [18] > 100 µM

CSc1cc(Cl)c(C)cc1S(=O)(=O)NC(=O)NNc1ccccn1
inactive: [2] > 100 µM | [3] > 100 µM | [4] > 100 µM | [5] > 100 µM | [19] > 100 µM | [6] > 100 µM | [9] > 100 µM | [10] > 100 µM | [11] > 100 µM | [12] > 100 µM | [13] > 100 µM | [14] > 100 µM | [15] > 100 µM | [17] > 100 µM | [18] > 100 µM

C(=N\c1nc2cc3sc(/N=C/c4cccs4)nc3cc2s1)/c1cccs1
inactive: [1] > 100 µM | [2] > 100 µM | [3] > 100 µM | [4] > 100 µM | [5] > 100 µM | [19] 28.4 µM | [6] > 100 µM | [7] > 100 µM | [8] > 100 µM | [9] > 100 µM | [10] 5.36 µM | [12] > 100 µM | [14] 72.9 µM | [15] > 100 µM | [17] > 100 µM | [18] > 100 µM

COC(=O)C1CC2CCC1(O[Si](C(C)C)(C(C)C)C(C)C)C(O)C2 (stereo unspecified)
inactive: [1] 17.5 µM | [2] 25.8 µM | [3] 22 µM | [4] 20 µM | [5] 19.1 µM | [19] 21.2 µM | [6] 18.2 µM | [7] 16.6 µM | [9] 25.8 µM | [10] 33.7 µM | [11] 26.4 µM | [12] 17.7 µM | [13] 21.8 µM | [14] 17.9 µM | [15] 54.2 µM | [16] 37 µM | [17] 18.1 µM | [18] 43.4 µM

Cn1c2ccccc2c(=O)c2cccc(C(=O)NC(CS)C(=O)O)c21 (stereo unspecified)
inactive: [1] 26.5 µM | [2] > 100 µM | [3] > 100 µM | [4] > 100 µM | [5] > 100 µM | [19] 40.1 µM | [6] 68.9 µM | [7] > 100 µM | [9] > 100 µM | [10] > 100 µM | [11] 84.9 µM | [12] 60.8 µM | [13] > 100 µM | [14] > 100 µM | [15] > 100 µM | [16] > 100 µM | [17] > 100 µM | [18] > 100 µM

Clc1cc2nnn(C3CCCCO3)c2cc1Cl (stereo unspecified)
inactive: [1] > 100 µM | [2] 30.4 µM | [3] > 100 µM | [4] > 100 µM | [5] > 100 µM | [19] 23.5 µM | [6] 79.8 µM | [7] 30.7 µM | [9] > 100 µM | [10] 88.9 µM | [12] 24.5 µM | [13] > 100 µM | [14] > 100 µM | [15] > 100 µM | [16] 37.2 µM | [17] 35.4 µM | [18] > 100 µM
